Earlier results as cited in paper PMC9217999 (Targeted Oncology, 2022).

Legend:
[1] = cited from earlier work
[2] = Days 1−21 of each 28-day cycle; cited from earlier work
[3] = test system: pediatric cancer cell lines; settings: ref Roche data on file; cited from earlier work
[4] = adults, similar dose; cited from earlier work

## O=C(c1ccc(F)c(F)c1Nc1ccc(I)cc1F)N1CC(O)([C@@H]2CCCCN2)C1 [cobimetinib]
[1]
  Mean accumulation ratio in adults: 2.4 fold
[2]
  Recommended Phase II dose (RP2D) in adults: 60 mg/day
[3]
  Cytotoxic effects: Cytotoxic effects
[4]
  Cobimetinib AUC lower in healthy subjects versus cancer patients: 50%
